Assay [1] relates to HeLa. In words: Cytotoxicity against human HeLa cells after 48 hrs by WST8 assay. It is filed as functional, cell-based. On the technique in general: Tetrazolium assays rely on reduction of a dye to a coloured formazan, in cell work by metabolically active cells.
The test system of assay [2] is HeLa. In words: Cytotoxicity against human HeLa cells after 120 hrs by WST8 assay. Format: functional, cell-based.
The target of assay [3] is Catenin beta-1/Transcription factor 7 (Homo sapiens, UniProt P35222+P36402). In words: Inhibition of T cell factor7/beta-catenin interaction by protein fragment complementation assay. Format: cell-based.
A further assay concerns the target T1, PAC1-PAC2 complex (Homo sapiens, UniProt O95456+Q969U7).
T1 sequence (O95456 whole entry): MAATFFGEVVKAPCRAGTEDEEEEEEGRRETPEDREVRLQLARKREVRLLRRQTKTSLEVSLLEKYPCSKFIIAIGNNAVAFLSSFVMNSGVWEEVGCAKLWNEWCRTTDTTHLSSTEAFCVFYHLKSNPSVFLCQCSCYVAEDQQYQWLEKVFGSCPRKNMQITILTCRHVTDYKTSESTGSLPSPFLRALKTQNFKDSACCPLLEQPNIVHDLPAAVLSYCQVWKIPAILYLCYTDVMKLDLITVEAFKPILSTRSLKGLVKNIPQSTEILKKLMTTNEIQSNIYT
T1 sequence (Q969U7 whole entry): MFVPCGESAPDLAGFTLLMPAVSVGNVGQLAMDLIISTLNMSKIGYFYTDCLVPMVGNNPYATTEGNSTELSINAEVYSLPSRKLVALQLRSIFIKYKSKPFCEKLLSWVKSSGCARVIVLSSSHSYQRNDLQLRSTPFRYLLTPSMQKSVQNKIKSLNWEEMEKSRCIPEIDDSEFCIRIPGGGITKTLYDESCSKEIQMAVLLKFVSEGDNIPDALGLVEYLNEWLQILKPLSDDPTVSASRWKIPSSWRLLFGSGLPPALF
In words: Inhibition of PAC1/PAC2 interaction by protein fragment complementation assay. Format: protein-complex assay.

For assay [4], the target named is T2, Proteasome assembly chaperone 3 (Homo sapiens, UniProt Q9BT73).
T2 sequence (Q9BT73 whole entry): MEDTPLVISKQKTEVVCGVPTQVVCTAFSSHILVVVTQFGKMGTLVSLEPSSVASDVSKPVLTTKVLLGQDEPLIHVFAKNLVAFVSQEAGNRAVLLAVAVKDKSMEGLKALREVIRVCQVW
In words: Inhibition of PAC3 homodimerization by protein fragment complementation assay.

Catenin beta-1/Transcription factor 7, sequence (P36402 whole entry, the tested form may be a part): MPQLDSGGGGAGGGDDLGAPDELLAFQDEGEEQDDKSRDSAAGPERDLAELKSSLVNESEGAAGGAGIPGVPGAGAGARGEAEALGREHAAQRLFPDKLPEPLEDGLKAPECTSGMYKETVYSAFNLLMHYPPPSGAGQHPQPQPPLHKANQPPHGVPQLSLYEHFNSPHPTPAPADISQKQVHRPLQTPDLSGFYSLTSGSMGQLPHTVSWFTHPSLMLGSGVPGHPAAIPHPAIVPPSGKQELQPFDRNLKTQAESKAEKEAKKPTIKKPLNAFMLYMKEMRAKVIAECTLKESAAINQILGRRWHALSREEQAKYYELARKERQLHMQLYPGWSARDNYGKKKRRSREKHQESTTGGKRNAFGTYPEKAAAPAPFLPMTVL
Catenin beta-1/Transcription factor 7, sequence (P35222 whole entry, the tested form may be a part): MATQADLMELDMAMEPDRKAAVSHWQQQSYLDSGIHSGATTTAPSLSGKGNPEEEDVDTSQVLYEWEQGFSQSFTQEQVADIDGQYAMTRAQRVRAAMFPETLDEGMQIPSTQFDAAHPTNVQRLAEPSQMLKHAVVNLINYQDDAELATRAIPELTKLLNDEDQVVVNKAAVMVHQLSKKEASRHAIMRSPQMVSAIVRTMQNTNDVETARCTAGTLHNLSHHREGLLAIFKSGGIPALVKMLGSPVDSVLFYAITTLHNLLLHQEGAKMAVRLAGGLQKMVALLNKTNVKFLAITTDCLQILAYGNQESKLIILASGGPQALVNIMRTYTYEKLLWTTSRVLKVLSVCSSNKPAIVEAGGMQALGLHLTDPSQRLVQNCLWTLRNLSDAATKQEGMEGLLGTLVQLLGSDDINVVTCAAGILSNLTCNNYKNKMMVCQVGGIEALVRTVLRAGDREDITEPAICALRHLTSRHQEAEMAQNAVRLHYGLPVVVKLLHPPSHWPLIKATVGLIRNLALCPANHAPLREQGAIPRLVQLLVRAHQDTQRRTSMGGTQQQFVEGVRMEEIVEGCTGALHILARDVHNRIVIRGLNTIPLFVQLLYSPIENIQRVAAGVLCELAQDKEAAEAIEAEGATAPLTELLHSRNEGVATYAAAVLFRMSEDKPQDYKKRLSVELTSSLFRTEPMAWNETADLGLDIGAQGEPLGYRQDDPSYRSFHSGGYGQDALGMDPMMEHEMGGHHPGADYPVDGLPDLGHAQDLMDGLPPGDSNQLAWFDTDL

Usually IC50 stands for the point on the concentration scale where inhibition reaches its midpoint. As for `COc1cccc2c1C(=O)c1c(O)c3c(c(O)c1C2=O)C[C@@](O)(C(=O)CO)C[C@@H]3O[C@H]1C[C@H](N)[C@H](O)[C@H](C)O1` [DOXORUBICIN], the 50% inhibitory concentration (IC50) with HeLa [1] was 0.037 µM; in the assay with HeLa [2] it was 0.055 µM.

With `CC(C)[C@@](O)(C[C@H]1C(=O)/C(=C(\O)[C@H]2[C@@H]3CCCC[C@H]3C=C[C@H]2C)C(=O)N1C)C(=O)O`, the IC50 in assay [3] was 6 µM; in the assay on HeLa [2] it was 68 µM; against PAC1-PAC2 complex it was 6 µM; in assay [4], 0.2 µM.

Consider `CC(=O)O[C@H]1C(=O)[C@@]2(C)[C@H]([C@H](OC(=O)c3ccccc3)[C@]3(O)C[C@H](OC(=O)[C@H](O)[C@@H](NC(=O)c4ccccc4)c4ccccc4)C(C)=C1C3(C)C)[C@]1(OC(C)=O)CO[C@@H]1C[C@@H]2O` [PACLITAXEL], for which the IC50 came to 0.03 µM in the assay on HeLa [1] and 0.19 µM in the assay with HeLa [2].
